Results reported in patent US4425355A, “Substituted acyl derivatives of chair form of octahydro-1H-indole-2-carboxylic acids” (Warner-Lambert Company, priority 1981, dated 1984).
Where a name gives a salt, the structure may show the parent alone.

Biological target: T1, Angiotensin converting enzyme (ACE) (Cavia porcellus, UniProt H0UWL7)
T1 construct: ACE from guinea pig serum and the test compounds are preincubated for 10 minutes; from tissue; host or cells: guinea pig serum
T1 sequence (H0UWL7 33-1302): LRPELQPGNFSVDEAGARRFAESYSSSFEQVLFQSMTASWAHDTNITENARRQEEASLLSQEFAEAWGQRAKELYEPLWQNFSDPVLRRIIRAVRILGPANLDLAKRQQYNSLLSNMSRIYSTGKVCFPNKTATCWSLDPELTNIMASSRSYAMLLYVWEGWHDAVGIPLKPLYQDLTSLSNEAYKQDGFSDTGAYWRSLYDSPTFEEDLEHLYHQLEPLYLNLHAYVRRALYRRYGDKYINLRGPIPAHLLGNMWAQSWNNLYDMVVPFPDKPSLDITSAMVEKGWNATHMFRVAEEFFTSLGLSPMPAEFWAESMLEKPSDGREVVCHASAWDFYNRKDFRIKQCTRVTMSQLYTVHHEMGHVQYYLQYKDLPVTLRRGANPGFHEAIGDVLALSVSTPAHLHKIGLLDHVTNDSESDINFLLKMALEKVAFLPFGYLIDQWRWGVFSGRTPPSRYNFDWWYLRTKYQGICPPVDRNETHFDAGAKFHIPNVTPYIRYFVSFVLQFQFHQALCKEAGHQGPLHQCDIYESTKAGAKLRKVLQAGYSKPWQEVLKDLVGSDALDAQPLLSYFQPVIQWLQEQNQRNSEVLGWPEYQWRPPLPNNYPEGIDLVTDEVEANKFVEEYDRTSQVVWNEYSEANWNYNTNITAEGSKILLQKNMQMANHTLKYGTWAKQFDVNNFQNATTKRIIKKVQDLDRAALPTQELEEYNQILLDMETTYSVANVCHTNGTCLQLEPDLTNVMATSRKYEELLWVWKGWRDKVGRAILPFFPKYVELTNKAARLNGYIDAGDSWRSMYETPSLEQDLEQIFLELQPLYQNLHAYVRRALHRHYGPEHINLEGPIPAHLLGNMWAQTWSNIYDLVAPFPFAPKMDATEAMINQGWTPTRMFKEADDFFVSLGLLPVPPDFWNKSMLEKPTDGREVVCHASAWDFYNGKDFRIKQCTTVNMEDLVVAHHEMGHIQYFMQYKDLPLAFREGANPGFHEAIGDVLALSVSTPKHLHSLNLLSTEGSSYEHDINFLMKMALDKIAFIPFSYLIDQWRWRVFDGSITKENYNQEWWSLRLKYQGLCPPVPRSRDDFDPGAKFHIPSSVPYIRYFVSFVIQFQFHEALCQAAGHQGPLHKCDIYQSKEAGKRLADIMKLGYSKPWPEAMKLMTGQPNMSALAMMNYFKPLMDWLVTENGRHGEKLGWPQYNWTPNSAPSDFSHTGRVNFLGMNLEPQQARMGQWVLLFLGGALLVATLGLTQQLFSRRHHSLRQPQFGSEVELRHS
Assay: In vitro ACE Assay: angiotensin converting enzyme inhibitory activity (guinea pig serum ACE, 3H-hippuryl-glycyl-glycine substrate)
Type: biochemical
Conditions: 10 min preincubation, 60 minute incubation at 37° C., read-out: IC50 (Activity of Compounds of Formula V)
Procedure: In vitro ACE Assay: Angiotensin converting enzyme (ACE) inhibitory activity is determined by assaying guinea pig serum ACE in the presence and absence of the test compound. ACE from guinea pig serum and the test compounds are preincubated for 10 minutes before the addition of the labelled substrate ^3 H-hippuryl-glycyl-glycine. […] ACE cleaves the hippuryl-glycyl bond to form the dipeptide glycyl-glycine and ^3 H-hippuric acid. The ^3 H-hippuric acid is then extracted with ethyl acetate and the ACE inhibition of a given sample calculated on the basis of the ^3 H-hippuric acid generated.

SMILES | IC50 [nM]
CC(CS)C(=O)N1[C@H](C(=O)O)C[C@@H]2CCCC[C@@H]21 (relative stereo) [V: R=H, R1=CH3, R2=H, --, (2α,3aβ,7aβ)-Octahydro-1-(3-mercapto-2-methylpropanoyl)-1H-indole-2-carboxylic acid] | 16
CC(=O)SCCC(=O)N1[C@H](C(=O)O)C[C@@H]2CCCC[C@@H]21 (relative stereo) [V: R=H, R1=H, R2=CH3 CO, l, (1)-(2α,3aβ,7aβ)-Octahydro-1-[3-(acetylthio)-propanoyl]-1H-indole-2-carboxylic Acid] | 480
O=C(O)[C@@H]1C[C@@H]2CCCC[C@@H]2N1C(=O)CCS (relative stereo) [V: R=H, R1=H, R2=H, l, (1)-(2α,3aβ,7aβ)-Octahydro-1-(3-mercaptopropanoyl)-1H-indole-2-carboxylic Acid] | 6.4
CC(CSC(=O)C(C)(C)C)C(=O)N1[C@H](C(=O)O)C[C@@H]2CCCC[C@@H]21 (single isomer, unassigned) [V: R=H, R1=CH3, R2=(CH3)3 CCO, dl, A, (2α,3aβ,7aβ)-Octahydro-1-[3-(2,2-dimethylpropanoylthio)-2-methylpropanoyl]-1H-indole-2-carboxylic Acid] | 170
CCC(=O)SCC(C)C(=O)N1[C@H](C(=O)O)C[C@@H]2CCCC[C@@H]21 (single isomer, unassigned; diastereomer a) [V: R=H, R1=CH3, R2=CH3 CH2 CO, dl, A, (2α,3aβ,7aβ)-Octahydro-1-[3-(propanoylthio)-2-methylpropanoyl]-1H-indole-2-carboxylic Acid, (Diastereomer A)] | 52
CC(=O)SCC(C)C(=O)N1[C@H](C(=O)O)C[C@@H]2CCCC[C@@H]21 (single isomer, unassigned; diastereomer a) [V: R=H, R1=CH3, R2=CH3 CO, A, (2α,3aβ,7aβ)-Octahydro-1-[3-(acetylthio)-2-methyl-propanoyl]-1H-indole-2-carboxylic Acid, Diastereomer A] | 160
CC(CSC(=O)c1ccccc1)C(=O)N1[C@H](C(=O)O)C[C@@H]2CCCC[C@@H]21 (single isomer, unassigned; diastereomer a) [V: R=H, R1=CH3, R2=PhCO, dl, A, (2α,3aβ,7aβ)-Octahydro-1-[3-(benzoylthio)-2-methylpropaoyl]-1H-indole-2-carboxylic Acid (Diastereomer A) t-Butylamine Salt] | 960

Continued, values first:

IC50 [nM] | SMILES
6700 | CCOC(=O)[C@@H]1C[C@@H]2CCCC[C@@H]2N1C(=O)C(C)CSC(C)=O (relative stereo) [V: R=C2 H5, R1=CH3, R2=CH3 CO, --, Ethyl (2α,3aβ,7aβ)-Octahydro-1-[3-(acetylthio)-2-methylpropanoyl]-1H-indole-2-carboxylate]
7 | CC(CS)C(=O)N1[C@H](C(=O)O)C[C@@H]2CCCC[C@@H]21 (single isomer, unassigned; diastereomer a) [V: R=H, R1=CH3, R2=H, dl, A, (2α,3aβ,7aβ)-Octahydro-1-(3-mercapto-2-methylpropanoyl)-1H-indole-2-carboxylic Acid, Diastereomer A]
1100 | CC(=O)SCC(C)C(=O)N1[C@H](C(=O)O)C[C@@H]2CCCC[C@@H]21 (single isomer, unassigned; diastereomer b) [V: R=H, R1=CH3, R2=CH3 CO, dl, B, (2α,3aβ,7aβ)-Octahydro-1-[3-(acetylthio)-2-methylpropanoyl]-1H-indole-2-carboxylic Acid, Diastereomer B.]
